The record followed here is US8871683B2, “Dicamba herbicide composition” (Nufarm Australia Limited, priority 2008, dated 2014).

The data set can be described thus: Low temperature (cold storage) stability testing, CIPAC Method 39.3 (1999). It counts as physicochemical. The note with it: for cold temperature stability at 0° C.: 750 g/L Dicamba (based on acid equivalent); for cold storage / low temperature stability at 0° C.: Dicamba 800 g/L acid equivalent. The procedure: Compositions described in the Examples were examined by the CIPAC Method 39.3 (1999) the procedure of which is noted below.
Transfer 100±1.0 ml of the formulation to the tube and insert the stopper. Cool to 0±2° C. in the refrigerator (Note 2). If the sample contains a dissolved crystalline pesticide, remove the tube from the refrigerator after 24 hours, take off the stopper, add a small crystal of the pure or technical pesticide (Note 3) and replace the stopper. Replace the tube in the refrigerator and allow it to remain at 0±2° C. for a total period of 7 days (Note 4).
At the end of this time, note the volume and nature of any separated material. If the liquid phase is not homogeneous, note the volume of each layer. If there is any separated material, then allow the tube to reach room temperature over a period of 24 hours (Note 5), invert once and again note the volume and nature of any separated material. • Note 1 A domestic refrigerator is often unsuitable because the on/off cycle may cover a range larger than 4° C. • Note 2 Alternatively a graduated emulsion tube meeting BS 658 class B, type 1 (Crow Receiver) may be used. • Note 3 A crystal from the commercial manufacturing process is preferred. Alternatively a crystal separated from the formulation e.g. by distillation of the solvent may be used. • Note 4 Other temperature-storage period combinations may be specified. • Note 5 Room temperature being defined as 23±2° C. Note any temperature outside this range.
Low temperature stability testing was carried out in accordance with the Standard CIPAC Method 39.3 (1999) and the resulting percentage crystallisation is reported in Table 3.

With `CNC.COc1c(Cl)ccc(Cl)c1C(=O)O` [DMA salt], the “cold temperature stability at 0° C.” value is on record as “not stable” and the “cold storage / low temperature stability at 0° C.” value was “Neither of the individual DMA or MMA salts were stable”.
Take `CN.COc1c(Cl)ccc(Cl)c1C(=O)O` [MMA salt]: the “cold temperature stability at 0° C.” value is “not stable” and the “cold storage / low temperature stability at 0° C.” value is recorded as “Neither of the individual DMA or MMA salts were stable”.
